Laboratory results reported in PMC6855212, “Antibacterial activity of synthetic 1,3‐bis(aryloxy)propan‐2‐amines against Gram‐positive bacteria” (MicrobiologyOpen, 2019).
Converted amounts (≈) assume the structure as drawn. “And” between values parts separate entries of the source, which are not always exact repeats. Identical values can stand only once. Like-named read-outs stand apart in the source and are kept apart here. One block for each compound: values may come before it.

Legend:
[1] = test system: MRSA Strain 6154; assay: MIC, broth microdilution; assay type: cell-based; conditions: Staphylococcus aureus, read-out: MIC MRSA Strain 6154
Experimental: (§1) The antibacterial activity of the compounds was evaluated using the broth microdilution method in 96‐well microplates according to the Clinical and Laboratory Standards Institute protocol (CLSI, 2017). First, synthetic compounds were diluted in Mueller Hinton broth (MHB; Oxoid, Thermo Scientific, UK) to concentrations ranging from 20 to 2.5 μg/ml. The same volume of a bacterial suspension containing 10^5 CFU/ml was added to each of the previous solutions, resulting in final compound concentrations from 10 to 1.25 μg/ml. […] All conditions were tested in triplicate and the results shown are representative of three independent assays.

[2] = test system: MRSA Strain 6100; assay: MIC, broth microdilution; assay type: cell-based; conditions: Staphylococcus aureus, read-out: MIC MRSA Strain 6100
Experimental: as §1

[3] = test system: Streptococcus pyogenes ATCC 19615; assay: MIC, broth microdilution; assay type: cell-based; conditions: for MIC: Streptococcus pyogenes, ATCC19615
Experimental: as §1

[4] = test system: Staphylococcus aureus ATCC 29212; assay: MIC, broth microdilution; assay type: cell-based; conditions: for MIC: Staphylococcus aureus, ATCC29212
Experimental: as §1

[5] = test system: Enterococcus faecalis ATCC 29213; assay: MIC, broth microdilution; assay type: cell-based
Experimental: as §1

[6] = test system: MRSA Strain 5912; assay: MIC, broth microdilution; assay type: cell-based; conditions: Staphylococcus aureus, read-out: MIC MRSA Strain 5912
Experimental: as §1

[7] = test system: MRSA Strain 6613; assay: MIC, broth microdilution; assay type: cell-based; conditions: Staphylococcus aureus, read-out: MIC MRSA Strain 6613
Experimental: as §1

[8] = test system: MRSA Strain 5749; assay: MIC, broth microdilution; assay type: cell-based; conditions: Staphylococcus aureus, read-out: MIC MRSA Strain 5749
Experimental: as §1

[9] = test system: MRSA Strain 6154; assay: MBC, plating of wells without growth; assay type: cell-based; conditions: Staphylococcus aureus
Experimental: (§2) After incubation at 35°C for 24 hr, the colonies were counted and the percentage of inhibition was calculated. MBC is defined as the lowest compound's concentration that inhibits at least 99.9% of the bacterial cell count compared to nontreated viability control (Clinical and Laboratory Standards Institute, 1999).

[10] = test system: MRSA Strain 6100; assay: MBC, plating of wells without growth; assay type: cell-based; conditions: Staphylococcus aureus
Experimental: as §2

[11] = test system: MRSA Strain 5912; assay: MBC, plating of wells without growth; assay type: cell-based; conditions: Staphylococcus aureus
Experimental: as §2

[12] = test system: S. pyogenes ATCC 19615; assay: MBC, plating of wells without growth; assay type: cell-based; conditions: Streptococcus pyogenes, ATCC19615; at least 99.9% inhibition of cell count
Experimental: as §2

[13] = test system: MRSA Strain 6613; assay: MBC, plating of wells without growth; assay type: cell-based; conditions: Staphylococcus aureus
Experimental: as §2

[14] = test system: S. aureus ATCC 29212; assay: MBC, plating of wells without growth; assay type: cell-based; conditions: Staphylococcus aureus, ATCC29212; at least 99.9% inhibition of cell count
Experimental: as §2

[15] = test system: MRSA Strain 5749; assay: MBC, plating of wells without growth; assay type: cell-based; conditions: Staphylococcus aureus
Experimental: as §2

[16] = test system: Gram‐positive bacteria (E. faecalis, S. aureus and S. pyogenes); assay: MIC, broth microdilution, Gram‐positive bacteria taken together; assay type: cell-based; conditions: Staphylococcus aureus; over different bacterial strains, including MRSA where stated; read-out: MIC against Gram‐positive bacteria, summary
Experimental: as §1

[17] = test system: MRSA strains; assay: MIC, broth microdilution, MRSA strains taken together; assay type: cell-based; conditions: Staphylococcus aureus; over the six MRSA strains (CPD18: four out of six); read-out: MIC against MRSA strains
Experimental: as §1

[18] = Cytotoxicity, MTT reduction assay; assay type: cell-based; conditions: African green monkey, 48 hr
Experimental: The cytotoxicity of active compounds to mammalian cells was assessed using the MTT reduction assay (Mosmann, 1983). Vero and BSC‐40 cells were seeded in 96‐well plates (8 × 10^4 cells per well) and incubated at 37°C and 5% CO2 atmosphere. After 24 hr of incubation, 200 μL of fresh medium containing a serial dilution of compounds (10–1.25 μg/ml) were added to the plates. After 48 hr of incubation in the same conditions, 100 μL of MTT solution in MEM or DMEM (5 mg/ml) was added to each well and incubated for 3 hr at 37°C and 5% CO2 atmosphere. The medium was removed and 100 μL of DMSO was used to solubilize formazan crystals. Absorbance at 570 nm of each well was read using a spectrophotometer (VersaMax, Molecular Devices).

[19] = test system: MRSA ATCC 43300; assay: MIC, broth microdilution; assay type: cell-based; conditions: Staphylococcus aureus, read-out: MIC MRSA ATCC 43300
Experimental: as §1

[20] = test system: S. aureus; design: method as in CLSI, 2017; conditions: antimicrobials in clinical use; ref CLSI, 2017; cited from earlier work
[21] = test system: MRSA; design: method as in Baltch, Ritz, Bopp, Michelsen, & Smith, 2007; conditions: antimicrobials used in the clinic; ref Baltch, Ritz, Bopp, Michelsen, & Smith, 2007; cited from earlier work
[22] = test system: E. faecalis; design: method as in CLSI, 2017; conditions: antimicrobials in clinical use; ref CLSI, 2017; cited from earlier work
[23] = 24 hr, 35°C, read-out: MIC Streptococcus pyogenes ATCC 19615
[24] = 24 hr, 35°C, read-out: MIC Staphylococcus aureus ATCC 29212

MIC ([1]; clinical strain): 26.3 µM (≈ 9.04 µg/mL)
MIC ([2]; clinical strain, — = no activity up to 10 μg/ml): 26.3 µM (≈ 9.04 µg/mL)
MIC [3, 23]: 26.3 µM
MIC ([3]; read-out: MIC against S. pyogenes): 10 µg/mL
MIC [4, 24]: 26.3 µM
MIC ([4]; read-out: MIC against S. aureus): 10 µg/mL
MIC ([6]; clinical strain): 13.2 µM (≈ 4.52 µg/mL)
MIC ([7]; clinical strain): 26.3 µM (≈ 9.04 µg/mL)
MIC ([8]; clinical strain): 26.3 µM (≈ 9.04 µg/mL)
MIC [16]: 10 µg/mL and 26.3 µM
SMILES: NC(COc1ccc2ccccc2c1)COc1ccc2ccccc2c1 [CPD21]
Antibacterial activity in initial screening, S. pyogenes ([3]; concentration of 10 μg/ml): showed activity
Antibacterial activity in initial screening, S. aureus ([4]; concentration of 10 μg/ml): showed activity
Antibacterial activity in initial screening, E. faecalis ([5]; concentration of 10 μg/ml): not observed
MBC [9]: 26.3 µM (≈ 9.04 µg/mL)
MBC [10]: 26.3 µM (≈ 9.04 µg/mL)
MBC [11]: 13.2 µM (≈ 4.52 µg/mL)
MBC [12]: 26.3 µM (≈ 9.04 µg/mL)
MBC [13]: 26.3 µM (≈ 9.04 µg/mL)
MBC [14]: 26.3 µM (≈ 9.04 µg/mL)
MBC [15]: 26.3 µM (≈ 9.04 µg/mL)
MIC [17]: 5 µg/mL to 10 µg/mL and 13.2 µM to 26.3 µM
CC50 at 48 h ([18]; BSC-40 cells, BSC‐40, MTT, read-out: CC50): 5.06 ± 1.13 µg/mL
CC50 at 48 h ([18]; BSC-40 cells, BSC‐40, MTT, read-out: CC50 ± SD): 13.3 ± 2.97 µM
CC50 at 48 h ([18]; Vero cells, MTT, read-out: CC50 ± SD): 11.3 ± 2.58 µM

melting point: 103.4 to 105.7 °C
SMILES: OC(COc1ccc(Cl)c(Cl)c1)COc1ccc(Cl)c(Cl)c1 [CPD29, 1,3‐Bis(3,4‐dichlorophenoxy)propan‐2‐ol]

melting point: 83.7 to 84.4 °C
SMILES: CS(=O)(=O)OC(COc1ccc(Cl)c(Cl)c1)COc1ccc(Cl)c(Cl)c1 [CPD30, 1,3‐Bis(3,4‐dichlorophenoxy)propan‐2‐yl methanesulfonate]

melting point: 95.6 to 96.3 °C
SMILES: [N-]=[N+]=NC(COc1ccc(Cl)c(Cl)c1)COc1ccc(Cl)c(Cl)c1 [CPD31, 1,3‐Bis(3,4‐dichlorophenoxy)propan‐2‐yl azide]

melting point: 62.6 to 64.8 °C
SMILES: Clc1ccc(OCC(COc2ccc(Cl)cc2)N2CCOCC2)cc1 [CPD34, 4‐(1,3‐Bis(4‐chlorophenoxy)propan‐2‐yl)morpholine]

melting point: 145.3 to 147.2 °C
SMILES: Cc1ccc(S(=O)(=O)OC(COc2ccc(Cl)cc2)COc2ccc(Cl)cc2)cc1 [CPD39, 1,3‐bis(4‐chlorophenoxy)propan‐2‐yl 4‐methylbenzenesulfonate]

MIC [3, 23]: 0.24 µM
MIC [4, 24]: 0.06 µM
MIC ([5]; Enterococcus faecalis, ATCC29213, 24 hr, 35°C, — = no activity up to 10 μg/ml, read-out: MIC Enterococcus faecalis ATCC 29213): 5.98 µM (≈ 2 µg/mL)
SMILES: CC1(C)S[C@@H]2[C@H](NC(=O)Cc3ccccc3)C(=O)N2[C@H]1C(=O)O [Penicillin G, reference compound]

SMILES: CN[C@H](CC(C)C)C(=O)N[C@H]1C(=O)N[C@@H](CC(N)=O)C(=O)N[C@H]2C(=O)N[C@H]3C(=O)N[C@H](C(=O)N[C@H](C(=O)O)c4cc(O)cc(O)c4-c4cc3ccc4O)[C@H](O)c3ccc(c(Cl)c3)Oc3cc2cc(c3O[C@@H]2O[C@H](CO)[C@@H](O)[C@H](O)[C@H]2O[C@H]2C[C@](C)(N)[C@H](O)[C@H](C)O2)Oc2ccc(cc2Cl)[C@H]1O [Vancomycin, reference compound]
MIC [1]: 1.38 µM (≈ 2 µg/mL)
MIC [2]: 1.38 µM (≈ 2 µg/mL)
MIC [19]: 1.38 µM (≈ 2 µg/mL)
MIC [6]: 1.38 µM (≈ 2 µg/mL)
MIC [7]: 1.38 µM (≈ 2 µg/mL)
MIC [8]: 1.38 µM (≈ 2 µg/mL)
MIC S. aureus [20]: 0.5 to 2 µg/mL
MIC MRSA [21]: 2 µg/mL (≈ 1.38 µM)
MIC E. faecalis [22]: 1 to 4 µg/mL

SMILES: NCC[C@H](O)C(=O)N[C@@H]1C[C@H](N)[C@@H](O[C@H]2O[C@H](CN)[C@@H](O)[C@H](O)[C@H]2O)[C@H](O)[C@H]1O[C@H]1O[C@H](CO)[C@@H](O)[C@H](N)[C@H]1O [amikacin]
MIC S. aureus [20]: 1 to 4 µg/mL
MIC E. faecalis [22]: 64 to 256 µg/mL

SMILES: CC1(C)S[C@@H]2[C@H](NC(=O)C(C(=O)O)c3ccccc3)C(=O)N2[C@H]1C(=O)O (stereo partly shown) [carbenicillin]
MIC S. aureus [20]: 2 to 8 µg/mL
MIC E. faecalis [22]: 16 to 64 µg/mL

SMILES: CC(C)(O/N=C(\C(=O)N[C@@H]1C(=O)N2C(C(=O)[O-])=C(C[n+]3ccccc3)CS[C@H]12)c1csc(N)n1)C(=O)O [ceftazidime]
MIC S. aureus [20]: 4 to 16 µg/mL

SMILES: O=C(N[C@H](CO)[C@H](O)c1ccc([N+](=O)[O-])cc1)C(Cl)Cl [chloramphenicol]
MIC S. aureus [20]: 2 to 16 µg/mL
MIC E. faecalis [22]: 4 to 16 µg/mL

SMILES: CCCCCCCCCC(=O)N[C@@H](Cc1c[nH]c2ccccc12)C(=O)N[C@H](CC(N)=O)C(=O)N[C@@H](CC(=O)O)C(=O)N[C@@H]1C(=O)NCC(=O)N[C@@H](CCCN)C(=O)N[C@@H](CC(=O)O)C(=O)N[C@H](C)C(=O)N[C@@H](CC(=O)O)C(=O)NCC(=O)N[C@H](CO)C(=O)N[C@@H]([C@H](C)CC(=O)O)C(=O)N[C@@H](CC(=O)c2ccccc2N)C(=O)O[C@@H]1C [daptomycin]
MIC MRSA [21]: 0.5 µg/mL (≈ 0.309 µM)

SMILES: CNC(C)C1CCC(N)C(OC2C(N)CC(N)C(OC3OCC(C)(O)C(NC)C3O)C2O)O1 (stereo not shown) [gentamicin]
MIC MRSA [21]: 128 µg/mL (≈ 268 µM)

SMILES: NC[C@H]1O[C@H](O[C@H]2[C@H](O)[C@@H](O[C@H]3O[C@H](CO)[C@@H](O)[C@H](N)[C@H]3O)[C@H](N)C[C@@H]2N)[C@H](O)[C@@H](O)[C@@H]1O [kanamycin]
MIC S. aureus [20]: 1 to 4 µg/mL
MIC E. faecalis [22]: 16 to 64 µg/mL

SMILES: CC(=O)NC[C@H]1CN(c2ccc(N3CCOCC3)c(F)c2)C(=O)O1 [linezolid]
MIC S. aureus [20]: 1 to 4 µg/mL
MIC E. faecalis [22]: 1 to 4 µg/mL

SMILES: COc1cccc(OC)c1C(=O)N[C@@H]1C(=O)N2[C@@H]1SC(C)(C)[C@@H]2C(=O)O [methicillin]
MIC E. faecalis [22]: > 16 µg/mL

SMILES: Cc1onc(-c2ccccc2)c1C(=O)N[C@@H]1C(=O)N2[C@@H]1SC(C)(C)[C@@H]2C(=O)O [oxacillin]
MIC MRSA [21]: 16 µg/mL (≈ 39.9 µM)

SMILES: CCN1CCN(C(=O)N[C@@H](C(=O)N[C@@H]2C(=O)N3[C@@H]2SC(C)(C)[C@@H]3C(=O)O)c2ccccc2)C(=O)C1=O [piperacillin]
MIC S. aureus [20]: 1 to 4 µg/mL
MIC E. faecalis [22]: 1 to 4 µg/mL
